In patent publication US4107424A, “1-N-[(S)-α-hydroxy-ω-aminoacyl] derivatives of 3',4'-dideoxykanamycin B and 3'-deoxykanamycin B antibiotics” (Zaidan Hojin Biseibutsu Kagaku Kenkyu Kai, priority 1972, dated 1978):
In brackets after ≈: the same amount, converted by molar mass. Like-named read-outs stand apart in the source and are kept apart here.

Tests used:
[1] = test system: Escherichia coli K-12 R-5; test: Minimal inhibitory concentration, agar dilution streak method; format: cell-based; conditions: K12R5, nutrient agar, 37° C, 18 hours
Experimental: (§1) [α]D^22 + 38°, (c 0.85, water).
(§2) *Agar Agar dilution streak method (nutrient agar, 37° C, 18 hours)
(§3) *Agar dilution streak method (nutrient agar, 37° C, 18 hours).

Escherichia coli NIHJ = test: as above; format: cell-based; conditions: nutrient agar, 37° C, 18 hours
Experimental: as §1, §2, §3

[2] = test system: Pseudomonas aeruginosa 99; test: as above; format: cell-based; conditions: nutrient agar, 37° C, 18 hours
Experimental: as §1, §2, §3

Salmonella typhosa T-63 = test: as above; format: cell-based; conditions: Salmonella enterica, nutrient agar, 37° C, 18 hours
Experimental: as §1, §2, §3

Sarcina lutea PCI 1001 = test: as above; format: cell-based; conditions: Micrococcus luteus, PCI1001, 18 h, read-out: Minimal inhibitory concentration
Experimental: as §1, §2, §3

[3] = test system: Escherichia coli K-12 JR 66/W 677; test: as above; format: cell-based; conditions: Escherichia coli, 18 h
Experimental: as §2, §3

[4] = test system: Escherichia coli K-12 LA 290 R 55; test: as above; format: cell-based; conditions: 18 h
Experimental: as §2, §3

[5] = test system: Escherichia coli K-12 LA 290 R 56; test: as above; format: cell-based; conditions: 18 h
Experimental: as §2, §3

[6] = test system: Escherichia coli K-12 LA 290 R 64; test: as above; format: cell-based; conditions: nutrient agar, 37° C, 18 hours
Experimental: as §2, §3

[7] = test system: Escherichia coli K-12 ML 1410 R 81; test: as above; format: cell-based; conditions: 18 h
Experimental: as §2, §3

[8] = test system: Escherichia coli K-12 ML 1410; test: as above; format: cell-based; conditions: K12ML1410, nutrient agar, 37° C, 18 hours
Experimental: as §2, §3

[9] = test system: Escherichia coli K-12 ML 1629; test: as above; format: cell-based; conditions: K12ML1629, nutrient agar, 37° C, 18 hours
Experimental: as §2, §3

[10] = test system: Escherichia coli K-12 ML 1630; test: as above; format: cell-based; conditions: K12ML1630, nutrient agar, 37° C, 18 hours
Experimental: as §2, §3

[11] = test system: Escherichia coli K-12 W 677; test: as above; format: cell-based; conditions: K12W677, nutrient agar, 37° C, 18 hours
Experimental: as §2, §3

Escherichia coli K-12 = test: as above; format: cell-based; conditions: K12, nutrient agar, 37° C, 18 hours
Experimental: as §2, §3

[12] = test system: Klebsiella pneumoniae type 22 #3038; test: as above; format: cell-based; conditions: Klebsiella pneumoniae; nutrient agar, 37° C, 18 hours
Experimental: as §2, §3

[13] = test system: Pseudomonas aeruginosa A 3; test: as above; format: cell-based; conditions: A3, nutrient agar, 37° C, 18 hours
Experimental: as §2, §3

[14] = test system: Pseudomonas aeruginosa GN 315; test: as above; format: cell-based; conditions: GN315, nutrient agar, 37° C, 18 hours, read-out: Minimal inhibitory concentration
Experimental: as §2, §3

[15] = test system: Pseudomonas aeruginosa No.12; test: as above; format: cell-based; conditions: nutrient agar, 37° C, 18 hours
Experimental: as §2, §3

[16] = test system: Pseudomonas aeruginosa TI-13; test: as above; format: cell-based; conditions: TI13, nutrient agar, 37° C, 18 hours
Experimental: as §2, §3

[17] = test system: Staphylococcus aureus FDA 209P; test: as above; format: cell-based; conditions: FDA209P, nutrient agar, 37° C, 18 hours
Experimental: as §2, §3

[18] = test system: Mycobacterium smegmatis ATCC 607; test: as above; format: cell-based; conditions: Mycolicibacterium smegmatis, ATCC607; nutrient agar, 37° C, 18 hours; read-out: Minimum inhibitory concentrations
[19] = test system: Staphylococcus aureus Smith; test: Minimum inhibitory concentration, serial dilution method; format: cell-based; conditions: nutrient agar, 37° C, 18 hours, read-out: Minimum inhibitory concentrations
[20] = test system: Staphylococcus aureus Terajima; test: as above; format: cell-based; conditions: nutrient agar, 37° C, 18 hours, read-out: Minimum inhibitory concentrations
Bacillus anthracis = test: microbe, parasite or virus in culture; format: cell-based; conditions: 18 h, read-out: Minimum inhibitory concentrations
[21] = test system: Bacillus subtilis PCI 219; test: Minimum inhibitory concentration, serial dilution method; format: cell-based; conditions: PCI219, nutrient agar, 37° C, 18 hours, read-out: Minimum inhibitory concentrations
[22] = test system: Bacillus cereus ATCC 10702; test: as above; format: cell-based; conditions: ATCC10702, nutrient agar, 37° C, 18 hours, read-out: Minimum inhibitory concentrations
[23] = test system: Corynebacterium bovis 1810; test: as above; format: cell-based; conditions: Corynebacterium bovis, 1810; nutrient agar, 37° C, 18 hours; read-out: Minimum inhibitory concentrations
[24] = test system: Shigella dysenteriae JS 11910; test: as above; format: cell-based; conditions: JS11910, 18 h, read-out: Minimum inhibitory concentrations
[25] = test system: Shigella flexneri 4b JS 11811; test: as above; format: cell-based; conditions: 4BJS11811, nutrient agar, 37° C, 18 hours, read-out: Minimum inhibitory concentrations
Shigella sonnei JS 11746 = test: as above; format: cell-based; conditions: JS11746, nutrient agar, 37° C, 18 hours, read-out: Minimum inhibitory concentrations
[26] = test system: Salmonella enteritidis 1891; test: as above; format: cell-based; conditions: Salmonella enterica, nutrient agar, 37° C, 18 hours, read-out: Minimum inhibitory concentrations
Proetus vulgaris OX 19 = test: as above; format: cell-based; conditions: nutrient agar, 37° C, 18 hours; read-out: Minimum inhibitory concentrations
[27] = test system: Klebsiella pneumoniae PCI 1602; test: as above; format: cell-based; conditions: PCI1602, nutrient agar, 37° C, 18 hours, read-out: Minimum inhibitory concentrations
[28] = test system: gram-positive and gram-negative bacteria; test: Antibacterial activity (in words); format: cell-based; conditions: various gram-positive and gram-negative bacteria, including resistant strains
Experimental: as §1

in vivo = conditions: mouse, iv
mice = test: Acute intravenous toxicity (LD50) in mice; conditions: in words
[29] = test system: kanamycin-resistant strains; conditions: strains producing 3'-hydroxyl phosphorylating enzyme; cited from earlier work
nucleotidyl-transferase = conditions: adenylylation of 2"-hydroxyl group with ATP; cited from earlier work
[30] = read-out: Minimal inhibitory concentration
[31] = read-out: minimum inhibitory concentrations

Molecule `NCC[C@H](O)C(=O)N[C@@H]1C[C@H](N)[C@@H](O[C@H]2O[C@H](CN)[C@@H](O)[C@H](O)[C@H]2N)[C@H](O)[C@H]1O[C@H]1O[C@H](CO)[C@@H](O)[C@H](N)[C@H]1O` [AHB-kanamycin B, 1-N-[(S)-4-amino-2-hydroxybutyryl]-kanamycin B] has an MIC [1] of 0.78 µg/mL (≈ 1.33 µM), an MIC (Escherichia coli NIHJ) of 0.78 µg/mL (≈ 1.33 µM) and an MIC [2, 30] of 25 µg/mL (≈ 42.8 µM). For the same molecule, the MIC (Salmonella typhosa T-63) was 0.39 µg/mL (≈ 0.667 µM), the MIC (Sarcina lutea PCI 1001) was 3.13 µg/mL (≈ 5.35 µM) and the MIC [3, 30] was 3.12 µg/mL (≈ 5.34 µM). The MIC [4, 30] was 1.56 µg/mL (≈ 2.67 µM), the MIC [5, 30] was 0.39 µg/mL (≈ 0.667 µM) and the MIC [6, 30] was 0.39 µg/mL (≈ 0.667 µM). It also gave an MIC [7, 30] of 1.56 µg/mL (≈ 2.67 µM), an MIC [8, 30] of 3.13 µg/mL (≈ 5.35 µM) and an MIC [9, 30] of 1.56 µg/mL (≈ 2.67 µM). It also gave an MIC [10, 30] of 1.56 µg/mL (≈ 2.67 µM), an MIC [11, 30] of 0.39 µg/mL (≈ 0.667 µM) and an MIC (Escherichia coli K-12; [30]) of 0.78 µg/mL (≈ 1.33 µM). The MIC [12] was 6.25 µg/mL (≈ 10.7 µM), the MIC [13, 30] was 6.25 µg/mL (≈ 10.7 µM) and the MIC [14] was 50 µg/mL (≈ 85.5 µM). The MIC [15, 30] was 6.25 µg/mL (≈ 10.7 µM), the MIC [16, 30] was 6.25 µg/mL (≈ 10.7 µM) and the MIC [17, 30] was 0.78 µg/mL (≈ 1.33 µM). For the same molecule, the MIC [18] was 0.78 µg/mL (≈ 1.33 µM), the MIC [19] was under 0.2 µg/mL and the MIC [20] was 0.2 µg/mL (≈ 0.342 µM). It also gave an MIC (Bacillus anthracis) of under 0.2 µg/mL, an MIC [21] of under 0.2 µg/mL and an MIC [22] of 1.56 µg/mL (≈ 2.67 µM). It also gave an MIC [23] of 0.39 µg/mL (≈ 0.667 µM), an MIC [24] of 3.12 µg/mL (≈ 5.34 µM) and an MIC [25] of 3.12 µg/mL (≈ 5.34 µM). For the same molecule, the MIC (Shigella sonnei JS 11746) was 1.56 µg/mL (≈ 2.67 µM), the MIC [26] was 3.12 µg/mL (≈ 5.34 µM) and the MIC (Proetus vulgaris OX 19) was 1.56 µg/mL (≈ 2.67 µM). The MIC [27] was 0.39 µg/mL (≈ 0.667 µM), the antibacterial activity [28] was “high antibacterial activity not only against various gram-positive and gram-negative bacteria which are sensitive to kanamycins, but also against the drug-resistant strains of Escherichia coli and Pseudomonas aeruginosa” and the LD50 (in vivo) was over 100 mg/kg. The toxicity (mice) was “low toxicity to animals and men”.
Work on `NC[C@@H]1CC[C@@H](N)[C@@H](O[C@H]2[C@H](O)[C@@H](O[C@H]3O[C@H](CO)[C@@H](O)[C@H](N)[C@H]3O)[C@H](N)C[C@@H]2N)O1` [DKB, 3',4'-dideoxykanamycin B] yielded an MIC [2, 31] of 12.5 µg/mL (≈ 27.7 µM), an MIC [3, 31] of 100 µg/mL (≈ 221 µM) and an MIC [4, 31] of over 100 µg/mL. It also gave an MIC [5, 31] of 25 µg/mL (≈ 55.4 µM), an MIC [6, 31] of 25 µg/mL (≈ 55.4 µM) and an MIC [7, 31] of 3.12 µg/mL (≈ 6.91 µM). The MIC [8, 31] was 1.56 µg/mL (≈ 3.45 µM), the MIC ([9]; drug-resistant strain, read-out: minimum inhibitory concentrations) was 3.12 µg/mL (≈ 6.91 µM) and the MIC [10, 31] was 3.12 µg/mL (≈ 6.91 µM). The MIC [11, 31] was 1.56 µg/mL (≈ 3.45 µM), the MIC (Escherichia coli K-12; [31]) was 1.56 µg/mL (≈ 3.45 µM) and the MIC [13, 31] was 3.12 µg/mL (≈ 6.91 µM). It also gave an MIC [15, 31] of 3.12 µg/mL (≈ 6.91 µM), an MIC [16, 31] of 3.12 µg/mL (≈ 6.91 µM) and an MIC [17, 31] of 1.56 µg/mL (≈ 3.45 µM). For the same molecule, the “activity against kanamycin-resistant strains” value [29] was “actually effective” and the inactivation by nucleotidyl-transferase (nucleotidyl-transferase) was “inactivate”.
